In series [1] the test system is MCF-7 breast cancer cells. Also on record: method as in doi:10.1016/j.bionut.2013.04.001. The note with it: cited from earlier work.
Another series relates to MCF-7 cells. Description: iCELLigence real-time cell analysis. The format is cell-based, human. To be noted: Homo sapiens, MCF7, MCF-7, 20 μM, relative to control, read-out: cell viability (% ± SEM). The method, then: (§1) Therefore, compound 6j was applied in serial doses (2, 5, 10, 20, 50, and 100 μM) to MCF-7 cells and parallel to MCF-12A cells to determine the selectivity and safety. The treatments were performed 24 h after seeding the cells on system-specific biosensor-based plates. A total of 120 h of analyses were monitored, with cell viability measurements taken every 15 min. […] In addition, the viability percentage values for each dose in these periods were calculated and are summarized in Table 3 for MCF-7 and Table 4 for MCF-12A. […] In these treatments, cells were not killed dramatically after adding the highest two doses of 6j (100 and 50 μM); instead, they entered the stationary phase.
(§2) MCF-7 (Cat. no. HTB-22) (human estrogen receptor-positive breast cancer) and MCF-12A (Cat. no. CRL-10782) (human non-tumorigenic mammary epithelial) cell lines were obtained from the American Type Culture Collection (ATCC, Rockville, Maryland, USA). MCF-7 cells were maintained in Dulbecco’s modified Eagle’s medium (DMEM) (Biological Industries, Haemek, Israel) supplemented with 10% heat-inactivated fetal bovine serum (FBS) (Biowest, Nuaillé, France), 2 mM L-glutamine (Biological Industries, Haemek, Israel), 100 U/mL penicillin and 100 μg/mL streptomycin (Gibco, Waltham, MA, USA), and 2.5 μg/mL plasmocin (Invivogen, Toulouse, France) at 37 °C in a 5% CO2 humidified incubator. MCF-12A cells were cultured in a DMEM/F-12 Nutrient Mixture (Ham) (DMEM/F12 1:1 with HEPES and L-glutamine) (Gibco, Waltham, MA, USA) with 10% heat-inactivated FBS, 100 U/mL penicillin, 100 μg/mL streptomycin, and 10 μg/mL insulin (Humulin R, Lilly, Indianapolis, USA), 20 ng/mL epidermal growth factor (Abcam, Cambridge, UK), […] hydrocortisone (Dekort, Deva Ilac, Istanbul, Turkey), and 2.5 μg/mL plasmocin in a humidified atmosphere of 5% CO2 at 37 °C. The cells were routinely cultured in cell culture flasks and checked regularly under an inverted microscope. Cells reaching 80% confluency were passaged by treatment with 0.25% trypsin–EDTA. Total cell numbers were counted by the trypan blue dye exclusion method using a hemocytometer prior to the experiments.
(§3) The iCELLigence real-time cell analysis system was used to conduct a real-time and label-free examination of the activities of compound 6j on cells as we previously described.[62] In brief, following a background measurement with 200 μL of complete medium on iCELLigence E-plate L8, 100 μL of MCF-7 or MCF-12A cells was seeded at a density of 5.0 × 10^3 per well. During the 120 h monitoring, the system took impedance measurements via biosensors every 15 min. At the 24th h of incubation, the cells were treated with increasing concentrations of the 6j compound (2, 5, 10, 20, 50, and 100 μM) in duplicate. For cell culture experiments, compound 6j was dissolved in DMSO (Sigma, St. Louis, USA) at a stock concentration of 20 mM. For treatments, dilutions were prepared from 20 mM stock with a cell growth medium, with a final DMSO concentration of 0.1%. The medium containing 0.1% DMSO was also used as a negative control. […] Data were recorded by the iCELLigence software for 120 h and analyzed at the end of the study.

A short description of series [2]: iCELLigence real-time cell analysis. The format is cell-based, human. The note with it: human, MCF-12A, 20 μM, relative to control, read-out: cell viability (% ± SEM). The method, then:
as §1, §2, §3

Series [3] has as its system estrogen-induced uterotrophic effect. Nature of the series: In vivo anti-estrogenic (anti-uterotrophic) activity, immature rat model. Also on record: species or system Wistar immature female rats. To be noted: oral, 20 mg/kg (tamoxifen 20 mg/kg/day, 6j equimolar per method), 3 days, with estradiol 10 μg/kg/day s.c.; immature female rats. The method, then:
The anti-estrogenic activity was assessed as previously described.[65]−[67] All experiments were carried out in accordance with the recommendations of the […] Animal Care and Use Committee. The experimental protocol was approved by “The Commission on the Ethics of Scientific Research”, Faculty of Pharmacy, Minia University (no. ES30/2021). 20-day-old Wistar immature female rats (40–50 g) from the animal care facility of Nahda University at Beni Suef (NUB) were allowed to acclimatize to lab conditions for 3 days before the experiment with free access to food and water. Estradiol was diluted in olive oil and subcutaneously injected on the loose dorsal skin in a dose of 10 μg/kg/day. […] Both compounds were dissolved in a mixture of DMSO, Tween 20, and saline (1:1:8, respectively) and orally administered. The rats were randomly assigned to […] (n = 6) subjected to daily s.c. injections of estradiol, except for the control group. […] On the 4th day, all rats were sacrificed by cervical dislocation, and the uteri were dissected free of fat and weighed immediately. […] The results were expressed as percent inhibition from the formula [drawing 1] […] It is noteworthy that doses of the tested compounds are calculated on a molar basis. […] Values are expressed as mean ± SEM.

Read-outs that look alike come from different tables or passages of the source.

In general, IC50 refers to the concentration needed to halve the response being measured. A word on the viability: it is a read-out of living cells in per cent, often relative to untreated cells.

As for `COc1ccc(C(=O)/C=C2/C(=O)Nc3ccc(Cl)cc32)cc1OC` [Compound III], in series [1], the IC50 was 3.59 µM.
As for `CC/C(=C(\c1ccccc1)c1ccc(OCCN(C)C)cc1)c1ccccc1` [tamoxifen, reference compound], the viability at 20 µM is 86.84 ± 0.02% in the series on MCF-7 cells (24 h), 86.84 ± 0.02% in the series with MCF-7 cells (48 h), 85.59 ± 0.04% with MCF-7 cells (72 h) and 80.31 ± 0.07% in the series with MCF-7 cells (96 h). Besides, in series [2] (MCF-12A cells (non-tumorigenic mammary epithelial), 72 h), the viability at 72 h, 20 µM is 84 ± 0.01%. Further, the viability at 96 h, 20 µM in series [2] (MCF-12A cells (non-tumorigenic mammary epithelial), 96 h) was found to be 84 ± 0.01%. Besides, in series [2] (MCF-12A cells, 24 h), the viability at 24 h, 20 µM was 84 ± 0.01%. For the same compound, in series [2] (MCF-12A cells, 48 h), the viability at 48 h, 20 µM is 84 ± 0.01%. In series [3], the “anti-uterotrophic activity (inhibition of estrogen-induced uterine weight)” value stood at 50%.

The record behind these values is PMC9948168, “Vanillin-Based Indolin-2-one Derivative Bearing a Pyridyl Moiety as a Promising Anti-Breast Cancer Agent via Anti-Estrogenic Activity” (ACS Omega, 2023).
